Data reported in patent US20090069241A1, “Compositions and Methods for Use of Pigment Epithelial Derived Factor (PEDF) Peptide Fragments” (Yale University, priority 2006, published 2009).

Tests used:
Assay type in all cases: in vivo, C57/B16 mice
[1] = system: inner retina (INL, IPL, retinal ganglion cell layer); experiment: Transient retinal ischemia-reperfusion injury with intravitreous injection; morphometric analysis of inner retina; parameters: thickness of the INL compared with non-ischemia control / thickness of the IPL compared with non-ischemia control / surviving cells in the RGC layer compared with non-ischemia control: concentration or dose not given beside the values; conditions: for surviving cells in the RGC layer compared with non-ischemia control / thickness of the INL compared with non-ischemia control / thickness of the IPL compared with non-ischemia control: single intravitreous injection immediately after ischemia
Method: Induction of transient retinal ischemia in C57/B16 mice: Animal experiments were conducted in accordance with ARVO guidelines and were approved by the Animal Care and Use Committee of Yale University School of Medicine. Transient retinal ischemia was induced in one eye and the contralateral eye served as control. During the operation and recovery period, animals were placed on water heating pads at 37° C. […] Briefly, animals were anesthetized by i.p. injection of a mixture of 100 mg/kg Ketamine+10 mg/kg Xylazine. […] The anterior chambers were cannulated in fully anesthetized animals with a 30-gauge infusion needle connected by PE10 polyethylene tubing and IV set to a physiological saline reservoir. The intraocular pressure (IOP) of the cannulated eye was raised to 120 mmHg for 60 minutes by elevating the saline reservoir. Retinal ischemia was confirmed by direct microscopic observation of whitening of the fundus. The reperfusion was confirmed visually when needle was withdrawn from the anterior chamber. One group of animals was treated with Vetropolycin® ophthalmic ointment (Pharmaderm, Melville, N. Y.) on the ischemic eyes and allowed to recover for 24 hours, 48 hours, 7 days and 14 days before sacrifice. Other groups were kept for intravitreous injections of the PEDF and PEDF peptides.
Intravitreous injection of PEDF, PEDF peptides and encapsulated PEDF peptide: One group of animals remained uninjected to monitor ischemic damage. All other groups received intravitreal injections, which were performed under an ophthalmic microscope. […] Intravitreous injection was performed with 30-gauge beveled needle attached to PE10 polyethylene tubing and a 10 μl syringe (Hamilton, Reno, Nev.). The injections were performed through the sclera, approximately 1 mm behind the limbus. The needle remained in the vitreous cavity for 30 seconds after injection then gently withdrawn. Control groups were injected with 1 μl PBS, 1 μl control peptide (1 μg/μl), or blank nanospheres (0.1 mg/μl). […] Vetropolycin® ointment was applied to the injected eyes and animals were allowed to recover for 48 hours or 7 days before sacrifice.
Preparation of retinal tissue: at designated time points, mice were sacrificed by carbon dioxide inhalation followed by, in some cases, cervical dislocation. The eyes were enucleated, fixed in 4% paraformaldehyde for 24 hours, washed with PBS and embedded in paraffin. Five (5) μm thick sections that included the optic nerve were collected. Sections were processed for TUNEL, immunocytochemistry, or histochemical staining with hematoxylin and eosin (Surgipath, Ltd, Richmond, Ill.) using standard methods.
Morphologic and Morphometric Analysis: For each eye, three sections, which included the optic disk and were spaced at least 20 μm apart, were used for morphological analysis. The fields analyzed were 4×250 μm zones sampled from all retinal eccentricities. These zones were 500 μm away from the edge of optic disk or the ora serrata. The average measurement of these 4 zones was used for statistical analysis. The mean thickness of inner nuclear layer (INL) and inner plexiform layer (IPL) was measured using Axiovision3.1 software (Carl Zeiss MicroImaging, Inc., Thornwood, N.Y.). Total surviving cells in the retinal ganglion cell layer at the same locations were counted using light microscopy.
Statistical analysis: Twelve fields per retina were analyzed for each treatment, and a total of 72 fields were used. For statistical analysis, one-way analysis of variance (ANOVA) and Fisher tests were performed; p<0.05 was taken as significant. Data are presented as means and standard deviations.

STAT3 = experiment: Western blot of phosphorylated STAT3 in retinas after ischemic injury; conditions: 48 hours after ischemic injury; control retinas: detected only at 24 hours
Method: (§1) Induction of transient retinal ischemia in C57/B16 mice: Animal experiments were conducted in accordance with ARVO guidelines and were approved by the Animal Care and Use Committee of Yale University School of Medicine. Transient retinal ischemia was induced in one eye and the contralateral eye served as control. During the operation and recovery period, animals were placed on water heating pads at 37° C. Eighty-one 10-14 weeks male C57/B16 mice (Charles River Laboratories, Wilmington, Mass., weighing […]) were used in this experiment. To induce retinal ischemia, a previously established technique with some modifications was used (Hughes, 1991, Exp Eye Res. 53(5):573-582; Buchi et al., 1991, Opthalmologica 203 (3): 138-147). Briefly, animals were anesthetized by i.p. injection of a mixture of 100 mg/kg Ketamine+10 mg/kg Xylazine. […]
(§2) The effect of PEDF82-121 on STAT3 and Erk after ischemic injury was examined by Western blot. In control retinas subjected to ischemic injury, phosphorylated STAT3 was detected at 24 hours but not at 1 hour, 4 hours, 12 hours or 48 hours after ischemic injury. […] In control retinas, phosphorylated Erk was detect strongly at 4 hours and 12 hours after ischemic injury but was barely detectable at 24 hours and not detected at 48 hours. […]

Erk = experiment: Western blot of phosphorylated Erk in retinas after ischemic injury; conditions: 48 hours after ischemic injury; control retinas: not detected at 48 hours
Method: as §1, §2

GFAP = GFAP immunocytochemical labeling of Müller glial cells after transient ischemia
Method: Induction of transient retinal ischemia in C57/B16 mice: Animal experiments were conducted in accordance with ARVO guidelines and were approved by the Animal Care and Use Committee of Yale University School of Medicine. Transient retinal ischemia was induced in one eye and the contralateral eye served as control. During the operation and recovery period, animals were placed on water heating pads at 37° C. Eighty-one 10-14 weeks male C57/B16 mice (Charles River Laboratories, Wilmington, Mass., weighing […]) were used in this experiment. To induce retinal ischemia, a previously established technique with some modifications was used (Hughes, 1991, Exp Eye Res. 53(5):573-582; Buchi et al., 1991, Opthalmologica 203 (3): 138-147). Briefly, animals were anesthetized by i.p. injection of a mixture of 100 mg/kg Ketamine+10 mg/kg Xylazine. The corneas were topically anesthetized with 0.5% proparacaine hydrochloride (Bausch & Lomb Pharmaceuticals, Inc., Tampa, Fla.), and the pupils dilated with 2.5% phenylephrine (Bausch & Lomb Pharmaceuticals, Inc., Tampa, Fla.). The anterior chambers were cannulated in fully anesthetized animals with a 30-gauge infusion needle connected by PE10 polyethylene tubing and IV set to a physiological saline reservoir. The intraocular pressure (IOP) of the cannulated eye was raised to 120 mmHg for 60 minutes by elevating the saline reservoir. Retinal ischemia was confirmed by direct microscopic observation of whitening of the fundus. The reperfusion was confirmed visually when needle was withdrawn from the anterior chamber. One group of animals was treated with Vetropolycin® ophthalmic ointment (Pharmaderm, Melville, N. Y.) on the ischemic eyes and allowed to recover for 24 hours, 48 hours, 7 days and 14 days before sacrifice. Other groups were kept for intravitreous injections of the PEDF and PEDF peptides.
Intravitreous injection of PEDF, PEDF peptides and encapsulated PEDF peptide: One group of animals remained uninjected to monitor ischemic damage. All other groups received intravitreal injections, which were performed under an ophthalmic microscope. Experimental groups received 1 μl native PEDF protein (1 μg/μl), PEDF82-121 peptide (1 μg/μl), PEDF76-95 peptide (1 μg/μl), PEDF91-110 peptide (1 μg/μl), PEDF106-125 peptide (1 μg/μl) or PLGA PEDF82-121 nanospheres (0.1 mg/μl, less than 1.6 μg PEDF82-121 peptide when fully released) immediately after the end of the transient ischemia. Intravitreous injection was performed with 30-gauge beveled needle attached to PE10 polyethylene tubing and a 10 μl syringe (Hamilton, Reno, Nev.). The injections were performed through the sclera, approximately 1 mm behind the limbus. The needle remained in the vitreous cavity for 30 seconds after injection then gently withdrawn. […]

[2] = 48 hours after ischemia reperfusion

PEDF82-121: residues 82 to 121 of human PEDF, PLSVATALSALSLGAEQRTESIIHRALYYDLISSPDIHGT (SEQ ID NO: 3) ((1)..(40) Residues 82-121 of human PEDF; listed as Homo sapiens)
surviving cells in the RGC layer compared with non-ischemia control [1, 2]: 80.1% | thickness of the INL compared with non-ischemia control [1, 2]: 100% | thickness of the IPL compared with non-ischemia control [1, 2]: 100% | protection of the retinal ganglion cell layer (in words) ([1]; 48 hours post ischemia, versus PBS or PEDF136-155): substantial protection | surviving cells in the RGC layer compared with non-ischemia control ([1]; 7 days after injury): 56.8% | thickness of the INL compared with non-ischemia control ([1]; 7 days after injury): 72.8% | thickness of the IPL compared with non-ischemia control ([1]; 7 days after injury): 62.7% | protection of the retinal ganglion cell layer (in words) ([1]; 7 days post ischemia, free single bolus or nanospheres): less | IPL thickness after ischemic injury (in words) ([1]; compared to PBS injected controls, time not stated): maintained the thickness of the IPL | presence of phosphorylated STAT3 (STAT3): also detected at 48 hours | presence of phosphorylated Erk (Erk): strongly detected at 48 hours | GFAP labeling compared to PBS injections (GFAP; 48 hours after transient ischemia): less GFAP labeling | GFAP staining (GFAP; 7 days after injury): very similar staining
